In PMC4385830, “Group I Paks as therapeutic targets in NF2-deficient meningioma” (Oncotarget, 2015):

Assays:
Test in all cases: Kinase selectivity, Z'-LYTE
Format in all cases: biochemical
ZAP70 = biological target: T1, ZAP70 (Homo sapiens, UniProt P43403)
T1 construct: purchased Invitrogen (Life Technologies) SelectScreen Z'-LYTE
T1 sequence (P43403 1-619): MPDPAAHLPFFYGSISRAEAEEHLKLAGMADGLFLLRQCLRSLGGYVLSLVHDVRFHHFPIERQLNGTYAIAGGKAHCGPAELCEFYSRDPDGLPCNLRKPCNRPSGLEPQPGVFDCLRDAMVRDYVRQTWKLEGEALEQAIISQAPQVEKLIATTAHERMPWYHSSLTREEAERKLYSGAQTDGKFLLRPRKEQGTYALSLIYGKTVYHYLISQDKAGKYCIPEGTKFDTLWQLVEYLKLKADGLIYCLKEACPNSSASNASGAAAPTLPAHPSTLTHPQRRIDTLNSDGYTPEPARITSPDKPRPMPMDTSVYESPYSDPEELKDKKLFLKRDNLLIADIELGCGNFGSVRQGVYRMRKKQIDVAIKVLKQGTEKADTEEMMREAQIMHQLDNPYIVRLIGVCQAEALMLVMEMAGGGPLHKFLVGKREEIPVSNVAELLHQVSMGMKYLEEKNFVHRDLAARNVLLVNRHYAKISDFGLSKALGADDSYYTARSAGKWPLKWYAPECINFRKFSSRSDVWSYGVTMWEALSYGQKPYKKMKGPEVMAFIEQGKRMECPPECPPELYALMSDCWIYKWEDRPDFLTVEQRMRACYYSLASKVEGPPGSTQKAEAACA
Method: (§1) Kinase selectivity was assessed using a commercial service that employs a fluorescence-based, coupled-enzyme assay based on the differential sensitivity of phosphorylated and non-phosphorylated peptides to proteolytic cleavage (Invitrogen, Z'-LYTE®). This assay uses recombinant protein kinases and assay mixed optimized for each particular kinase (http://www.lifetechnologies.com/us/en/home/life-science/drug-discovery/target-and-lead-identification-and-validation /kinasebiology/kinase-activity-assays/z-lyte.html).

INSR = biological target: T2, INSR (Homo sapiens, UniProt P06213)
T2 construct: purchased Invitrogen (Life Technologies) SelectScreen Z'-LYTE
Method: as §1

MAPK10 (JNK3) = biological target: T3, MAPK10 (JNK3) (Homo sapiens, UniProt P53779)
T3 construct: purchased Invitrogen (Life Technologies) SelectScreen Z'-LYTE
Method: as §1

SPHK1 = biological target: T4, SPHK1 (Homo sapiens, UniProt Q9NYA1)
T4 construct: purchased Invitrogen (Life Technologies) SelectScreen Z'-LYTE
T4 sequence (Q9NYA1 whole entry): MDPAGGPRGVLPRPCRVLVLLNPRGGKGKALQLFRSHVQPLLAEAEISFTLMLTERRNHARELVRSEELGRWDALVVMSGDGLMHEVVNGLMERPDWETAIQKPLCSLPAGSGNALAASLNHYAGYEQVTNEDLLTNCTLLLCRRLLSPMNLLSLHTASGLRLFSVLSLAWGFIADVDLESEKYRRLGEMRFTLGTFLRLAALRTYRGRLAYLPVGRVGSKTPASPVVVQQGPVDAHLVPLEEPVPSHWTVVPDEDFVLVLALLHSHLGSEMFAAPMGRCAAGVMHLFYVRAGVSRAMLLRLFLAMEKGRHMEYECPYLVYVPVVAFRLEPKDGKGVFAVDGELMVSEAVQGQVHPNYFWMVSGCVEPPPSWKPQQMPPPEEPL
Method: as §1

PRKCB1 (PKC beta I) = biological target: T5, PRKCB1 (PKC beta I) (Homo sapiens, UniProt P05771)
T5 construct: purchased Invitrogen (Life Technologies) SelectScreen Z'-LYTE
T5 sequence (P05771 whole entry): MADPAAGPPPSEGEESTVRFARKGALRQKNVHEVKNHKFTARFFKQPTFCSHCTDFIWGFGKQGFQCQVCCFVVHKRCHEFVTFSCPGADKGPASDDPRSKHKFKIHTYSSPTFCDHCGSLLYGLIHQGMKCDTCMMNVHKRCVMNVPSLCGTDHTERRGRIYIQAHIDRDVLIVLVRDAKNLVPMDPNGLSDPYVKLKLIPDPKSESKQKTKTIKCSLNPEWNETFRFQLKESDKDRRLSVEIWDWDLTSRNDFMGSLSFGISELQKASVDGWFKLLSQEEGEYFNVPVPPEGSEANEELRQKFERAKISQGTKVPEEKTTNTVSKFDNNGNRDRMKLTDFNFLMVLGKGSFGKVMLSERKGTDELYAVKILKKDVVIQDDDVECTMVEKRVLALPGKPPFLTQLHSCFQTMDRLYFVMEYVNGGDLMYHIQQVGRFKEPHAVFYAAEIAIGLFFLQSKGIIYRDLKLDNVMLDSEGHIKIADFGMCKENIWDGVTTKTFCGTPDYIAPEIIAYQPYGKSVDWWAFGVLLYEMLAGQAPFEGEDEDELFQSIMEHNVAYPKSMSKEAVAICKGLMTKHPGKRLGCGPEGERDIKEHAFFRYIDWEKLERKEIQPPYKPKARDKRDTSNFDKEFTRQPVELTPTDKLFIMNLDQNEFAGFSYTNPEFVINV
Method: as §1

MAPKAPK2 = biological target: T6, MAPKAPK2 (Homo sapiens, UniProt P49137)
T6 construct: purchased Invitrogen (Life Technologies) SelectScreen Z'-LYTE
Method: as §1

STK22D (TSSK1) = biological target: T7, STK22D (TSSK1) (Homo sapiens, UniProt Q9BXA7)
T7 construct: purchased Invitrogen (Life Technologies) SelectScreen Z'-LYTE
T7 sequence (Q9BXA7 1-367): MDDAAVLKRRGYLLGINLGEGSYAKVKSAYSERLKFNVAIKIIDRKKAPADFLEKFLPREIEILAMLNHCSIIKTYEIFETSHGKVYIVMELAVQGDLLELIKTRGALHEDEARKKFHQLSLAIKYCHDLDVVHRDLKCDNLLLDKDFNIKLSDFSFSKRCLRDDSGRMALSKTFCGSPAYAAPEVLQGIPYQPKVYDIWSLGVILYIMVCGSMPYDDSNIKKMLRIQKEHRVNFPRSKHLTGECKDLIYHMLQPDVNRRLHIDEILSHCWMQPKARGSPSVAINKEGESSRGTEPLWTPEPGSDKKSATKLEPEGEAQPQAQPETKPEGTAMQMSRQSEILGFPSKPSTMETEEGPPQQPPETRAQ
Method: as §1

MET (cMet) = biological target: T8, MET (cMet) (Homo sapiens, UniProt P08581)
T8 construct: purchased Invitrogen (Life Technologies) SelectScreen Z'-LYTE
Method: as §1

PTK1 (FAK) = biological target: T9, PTK1 (FAK) (Homo sapiens, UniProt Q05397)
T9 construct: purchased Invitrogen (Life Technologies) SelectScreen Z'-LYTE
T9 sequence (Q05397 whole entry): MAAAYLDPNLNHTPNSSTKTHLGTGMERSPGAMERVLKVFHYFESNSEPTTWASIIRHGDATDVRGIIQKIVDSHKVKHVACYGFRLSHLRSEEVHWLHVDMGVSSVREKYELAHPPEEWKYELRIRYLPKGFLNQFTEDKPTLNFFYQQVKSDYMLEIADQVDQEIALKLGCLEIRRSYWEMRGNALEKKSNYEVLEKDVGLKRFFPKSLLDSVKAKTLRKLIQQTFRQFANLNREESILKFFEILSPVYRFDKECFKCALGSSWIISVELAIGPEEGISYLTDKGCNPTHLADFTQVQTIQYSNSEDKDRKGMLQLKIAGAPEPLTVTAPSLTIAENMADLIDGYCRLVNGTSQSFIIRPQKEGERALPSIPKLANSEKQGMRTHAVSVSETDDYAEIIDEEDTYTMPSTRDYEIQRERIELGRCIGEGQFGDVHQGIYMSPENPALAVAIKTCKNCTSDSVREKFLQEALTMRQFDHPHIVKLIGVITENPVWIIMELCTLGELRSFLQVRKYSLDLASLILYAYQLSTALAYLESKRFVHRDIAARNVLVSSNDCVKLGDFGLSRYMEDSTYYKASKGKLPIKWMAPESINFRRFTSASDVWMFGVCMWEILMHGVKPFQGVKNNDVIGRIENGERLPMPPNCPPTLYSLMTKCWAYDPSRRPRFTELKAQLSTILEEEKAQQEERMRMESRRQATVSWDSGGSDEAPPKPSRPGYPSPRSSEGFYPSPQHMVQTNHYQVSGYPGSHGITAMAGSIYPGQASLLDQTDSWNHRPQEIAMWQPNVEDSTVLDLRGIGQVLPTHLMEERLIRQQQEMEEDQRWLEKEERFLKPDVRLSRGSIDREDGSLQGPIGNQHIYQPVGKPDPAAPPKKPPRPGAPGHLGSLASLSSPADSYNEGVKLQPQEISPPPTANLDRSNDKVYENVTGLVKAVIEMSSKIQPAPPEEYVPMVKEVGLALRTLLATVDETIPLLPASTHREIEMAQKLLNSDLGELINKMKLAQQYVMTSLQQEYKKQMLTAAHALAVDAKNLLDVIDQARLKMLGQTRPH
Method: as §1

Pak4 = biological target: T10, Pak4 (Homo sapiens, UniProt O96013)
T10 construct: purchased Invitrogen (Life Technologies) SelectScreen Z'-LYTE
Method: as §1

MARK3 = biological target: T11, MARK3 (Homo sapiens, UniProt P27448)
T11 construct: purchased Invitrogen (Life Technologies) SelectScreen Z'-LYTE
T11 sequence (P27448 whole entry): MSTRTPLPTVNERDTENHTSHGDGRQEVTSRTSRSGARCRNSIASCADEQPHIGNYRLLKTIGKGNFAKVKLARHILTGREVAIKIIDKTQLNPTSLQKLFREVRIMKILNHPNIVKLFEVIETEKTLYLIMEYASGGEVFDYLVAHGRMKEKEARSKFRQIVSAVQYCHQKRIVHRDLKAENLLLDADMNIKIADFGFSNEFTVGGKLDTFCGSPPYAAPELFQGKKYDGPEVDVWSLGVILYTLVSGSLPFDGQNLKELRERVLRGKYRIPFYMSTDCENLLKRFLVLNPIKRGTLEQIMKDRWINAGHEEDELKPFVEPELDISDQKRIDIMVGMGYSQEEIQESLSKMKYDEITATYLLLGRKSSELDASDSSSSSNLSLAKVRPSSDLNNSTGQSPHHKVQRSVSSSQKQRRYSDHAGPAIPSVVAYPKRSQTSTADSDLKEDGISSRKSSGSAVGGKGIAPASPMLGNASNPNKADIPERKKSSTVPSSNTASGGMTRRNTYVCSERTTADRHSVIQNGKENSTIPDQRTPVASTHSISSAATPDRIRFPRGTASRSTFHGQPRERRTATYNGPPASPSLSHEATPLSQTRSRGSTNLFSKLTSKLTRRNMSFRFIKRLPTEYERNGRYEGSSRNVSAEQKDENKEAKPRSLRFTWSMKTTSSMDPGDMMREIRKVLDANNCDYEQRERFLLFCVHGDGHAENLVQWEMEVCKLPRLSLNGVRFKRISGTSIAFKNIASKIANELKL
Method: as §1

CSNK1D (CK1 delta) = biological target: T12, CSNK1D (CK1 delta) (Homo sapiens, UniProt P48730)
T12 construct: purchased Invitrogen (Life Technologies) SelectScreen Z'-LYTE
Method: as §1

FGFR2 = biological target: T13, FGFR2 (Homo sapiens, UniProt P21802)
T13 construct: purchased Invitrogen (Life Technologies) SelectScreen Z'-LYTE
Method: as §1

FRAP1 (mTOR) = biological target: T14, FRAP1 (mTOR) (Homo sapiens, UniProt P42345)
T14 construct: purchased Invitrogen (Life Technologies) SelectScreen Z'-LYTE
Method: as §1

PRKCQ (PKC theta) = biological target: T15, PRKCQ (PKC theta) (Homo sapiens, UniProt Q04759)
T15 construct: purchased Invitrogen (Life Technologies) SelectScreen Z'-LYTE
Method: as §1

YES1 = biological target: T16, YES1 (Homo sapiens, UniProt P07947)
T16 construct: purchased Invitrogen (Life Technologies) SelectScreen Z'-LYTE
T16 sequence (P07947 whole entry): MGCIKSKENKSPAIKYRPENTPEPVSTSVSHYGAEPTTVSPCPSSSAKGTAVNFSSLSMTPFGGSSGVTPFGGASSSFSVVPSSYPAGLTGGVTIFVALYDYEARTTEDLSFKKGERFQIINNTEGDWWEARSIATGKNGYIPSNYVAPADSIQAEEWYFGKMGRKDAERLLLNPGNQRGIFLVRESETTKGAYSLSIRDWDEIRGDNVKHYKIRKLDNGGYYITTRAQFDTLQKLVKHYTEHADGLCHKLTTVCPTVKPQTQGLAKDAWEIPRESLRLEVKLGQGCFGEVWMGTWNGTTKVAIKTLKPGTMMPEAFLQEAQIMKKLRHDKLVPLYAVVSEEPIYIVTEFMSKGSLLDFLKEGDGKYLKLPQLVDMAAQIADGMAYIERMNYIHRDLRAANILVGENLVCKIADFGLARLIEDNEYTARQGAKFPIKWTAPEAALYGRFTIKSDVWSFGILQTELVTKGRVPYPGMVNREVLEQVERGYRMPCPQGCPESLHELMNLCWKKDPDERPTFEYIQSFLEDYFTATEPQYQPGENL
Method: as §1

AKT1 (PKB alpha) = biological target: T17, AKT1 (PKB alpha) (Homo sapiens, UniProt P31749)
T17 construct: purchased Invitrogen (Life Technologies) SelectScreen Z'-LYTE
Method: as §1

PIM1 = biological target: T18, PIM1 (Homo sapiens, UniProt P11309)
T18 construct: purchased Invitrogen (Life Technologies) SelectScreen Z'-LYTE
T18 sequence (P11309 whole entry): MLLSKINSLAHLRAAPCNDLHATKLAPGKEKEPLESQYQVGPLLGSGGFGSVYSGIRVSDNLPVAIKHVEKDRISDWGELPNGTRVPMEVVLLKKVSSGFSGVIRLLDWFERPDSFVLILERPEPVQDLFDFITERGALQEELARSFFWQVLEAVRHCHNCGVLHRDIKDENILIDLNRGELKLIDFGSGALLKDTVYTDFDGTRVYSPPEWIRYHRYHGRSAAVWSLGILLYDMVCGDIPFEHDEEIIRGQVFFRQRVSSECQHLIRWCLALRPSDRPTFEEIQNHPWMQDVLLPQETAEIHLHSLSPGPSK
Method: as §1

BRAF = biological target: T19, BRAF (Homo sapiens, UniProt P15056)
T19 construct: purchased Invitrogen (Life Technologies) SelectScreen Z'-LYTE
Method: as §1

CDK9/cyclin T1 = biological target: T20, CDK9/cyclin T1 (Homo sapiens, UniProt P50750)
T20 construct: purchased Invitrogen (Life Technologies) SelectScreen Z'-LYTE
Method: as §1

ROCK2 = biological target: T21, ROCK2 (Homo sapiens, UniProt O75116)
T21 construct: purchased Invitrogen (Life Technologies) SelectScreen Z'-LYTE
Method: as §1

EPHA2 = biological target: T22, EPHA2 (Homo sapiens, UniProt P29317)
T22 construct: purchased Invitrogen (Life Technologies) SelectScreen Z'-LYTE
T22 sequence (P29317 24-976): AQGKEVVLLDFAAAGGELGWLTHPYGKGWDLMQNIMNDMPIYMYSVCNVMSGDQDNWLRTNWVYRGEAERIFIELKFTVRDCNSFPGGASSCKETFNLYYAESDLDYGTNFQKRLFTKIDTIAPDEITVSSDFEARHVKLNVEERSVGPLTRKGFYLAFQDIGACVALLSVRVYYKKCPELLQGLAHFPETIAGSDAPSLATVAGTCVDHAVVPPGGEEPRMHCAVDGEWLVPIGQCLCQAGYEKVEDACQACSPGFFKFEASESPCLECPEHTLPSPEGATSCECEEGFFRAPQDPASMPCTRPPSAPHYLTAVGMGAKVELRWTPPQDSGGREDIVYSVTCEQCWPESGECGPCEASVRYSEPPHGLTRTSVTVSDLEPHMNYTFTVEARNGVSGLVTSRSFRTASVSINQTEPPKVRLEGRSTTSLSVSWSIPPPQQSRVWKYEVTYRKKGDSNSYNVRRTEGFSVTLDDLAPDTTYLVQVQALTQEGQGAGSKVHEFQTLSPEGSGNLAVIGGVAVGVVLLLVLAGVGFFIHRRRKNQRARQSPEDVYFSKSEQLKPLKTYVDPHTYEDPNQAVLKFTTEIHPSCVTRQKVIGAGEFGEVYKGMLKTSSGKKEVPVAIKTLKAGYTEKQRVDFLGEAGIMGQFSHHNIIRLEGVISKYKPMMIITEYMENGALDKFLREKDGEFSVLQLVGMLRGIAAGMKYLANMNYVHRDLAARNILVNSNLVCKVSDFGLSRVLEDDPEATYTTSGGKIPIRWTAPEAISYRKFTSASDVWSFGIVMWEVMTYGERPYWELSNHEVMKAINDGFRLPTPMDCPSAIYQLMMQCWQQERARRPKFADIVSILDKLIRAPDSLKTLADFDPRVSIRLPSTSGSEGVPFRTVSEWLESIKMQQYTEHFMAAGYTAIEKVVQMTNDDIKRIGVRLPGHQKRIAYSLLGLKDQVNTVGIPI
Method: as §1

RP88KB1 (p70S6K) = biological target: T23, RP88KB1 (p70S6K) (Homo sapiens, UniProt P23443)
T23 construct: purchased Invitrogen (Life Technologies) SelectScreen Z'-LYTE
Method: as §1

SMILES | % inhibition of activity (ZAP70) [%] | % inhibition of activity (INSR) [%] | % inhibition of activity (MAPK10 (JNK3)) [%] | % inhibition of activity (SPHK1) [%] | % inhibition of activity (PRKCB1 (PKC beta I)) [%] | % inhibition of activity (MAPKAPK2) [%] | % inhibition of activity (STK22D (TSSK1)) [%] | % inhibition of activity (MET (cMet)) [%] | % inhibition of activity (PTK1 (FAK)) [%] | % inhibition of activity (Pak4) [%] | % inhibition of activity (MARK3) [%] | % inhibition of activity (CSNK1D (CK1 delta)) [%] | % inhibition of activity (FGFR2) [%] | % inhibition of activity (FRAP1 (mTOR)) [%] | % inhibition of activity (PRKCQ (PKC theta)) [%] | % inhibition of activity (YES1) [%] | % inhibition of activity (AKT1 (PKB alpha)) [%] | % inhibition of activity (PIM1) [%] | % inhibition of activity (BRAF) [%] | % inhibition of activity (CDK9/cyclin T1) [%] | also measured
CCn1c(=O)c(-c2ccc(-c3noc(C)n3)cc2Cl)cc2cnc(Nc3ccc(C4CCN(C)CC4)cc3)nc21 [Frax716] | 8 | 14 | 12 | −3 | 9 | 7 | 5 | 38 | 22 | 7 | 16 | 6 | 60 | 1 | 12 | 89 | 1 | −4 | 72 | 3 | % inhibition of activity (ROCK2): 4%; % inhibition of activity (EPHA2): 68%; % inhibition of activity (RP88KB1 (p70S6K)): 1%
CCn1c(=O)c(-c2ccc(-c3cncc(C)n3)cc2Cl)cc2cnc(NCCC3CCN(C)CC3)nc21 [Frax1036] | 3 | 0 | 45 | 0 | 18 | 0 | 12 | 36 | 9 | 6 | 24 | 11 | 15 | 0 | 24 | 18 | 0 | 0 | 7 | −8 | % inhibition of activity (ROCK2): 7%; % inhibition of activity (EPHA2): 18%; % inhibition of activity (RP88KB1 (p70S6K)): 10%
Cc1nc(Nc2[nH]nc3c2CN(C(=O)N[C@H](CN(C)C)c2ccccc2)C3(C)C)c2sccc2n1 [PF3758309, reference compound] | 10 | 7 | 5 | 4 | 58 | 1 | 90 | 19 | 38 | 99 | 100 | 3 | 72 | 0 | 97 | 86 | 16 | 6 | 52 | 13 | % inhibition of activity (ROCK2): 10%; % inhibition of activity (EPHA2): 18%; % inhibition of activity (RP88KB1 (p70S6K)): 79%
